Reference: patent publication US10058612B2, “Impaired energy processing disorders and mitochondrial deficiency” (priority 2011, dated 2018)
“Also recorded” adds a separate entry of the source. Where two headings read alike, the source gives them in different places.

Experiments:
[1] = Incorporation into animal tissues by isotope ratio mass-spectrometry; settings: 0.01-100 mg/kg diet; brain, liver, heart, lung
Description: Brain, liver, heart, and lung tissue are removed, and homogenate samples from control mice and test compound-treated mice are analyzed for deuterium content as described for Example 7 above.

[2] = Study in patients suffering from Huntington's disease; settings: in vivo
Description: (§1) Patients with schizophrenia and free of antipsychotic medication are selected for the study. […] Each week, patients are evaluated for frequency and duration of schizophrenic episodes. Additionally, blood samples are taken each week and biomarkers of oxidative stress, such as the biomarkers described above, are measured.
A similar study can be performed with patients suffering from Huntington's disease.

[3] = Study in patients with schizophrenia; type: in vivo; settings: 0.01-100 mg/kg daily over six months
Description: as §1

[4] = test system: coq null mutants (Q-less yeast); type: cell-based, S. cerevisiae; settings: for viability of cells by quantitative colony counting / viability of coq mutants after fatty acid treatment: 200 μM fatty acid; for viability of cells by quantitative colony counting: 1, 2, 4 h; for viability of coq mutants after fatty acid treatment: plate dilution assay
Description: FIG. 3. […] Yeast coq3, coq7 and coq9 null mutants were prepared in the W303 yeast genetic background (WT). Yeast strains were grown in YPD medium (1% Bacto-yeast extract, 2% Bacto-peptone, 2% dextrose) and harvested while in log phase growth (OD600 nm=0.1-1.0). Cells were washed twice with sterile water and resuspended in phosphate buffer (0.10 M sodium phosphate, pH 6.2, 0.2% dextrose) to an OD600 nm=0.2. Samples were removed and 1:5 serial dilutions starting at 0.20 OD/ml were plated on YPD plate medium, to provide a zero time untreated control (shown in top left panel). The designated fatty acids were added to 200 μM final concentration to 20 ml of yeast in phosphate buffer. At 2 h, 4 h, and 16 h samples were removed, 1:5 serial dilutions prepared, and spotted onto YPD plate medium. Pictures were taken after 2 days of growth at 30° C.
FIG. 4. […] The fatty acid sensitive assay was performed as described in FIG. 3, except that 100 μl aliquots were removed at 1, 2, and 4 h and, following dilution, spread onto YPD plates. Pictures were taken after 2 to 2.5 days, and the number of colonies counted. Yeast strains include Wild type (circles), atp2 (triangles), or coq3 (squares). Fatty acid treatments include oleic C18:1 (solid line), linolenic, C18:3, n-3 (dashed line) or 11,11,14,14-D4-linolenic, C18:3, n-3, (dotted line).
Q-less yeast (coq mutants) provide an ideal system to assess in vivo autoxidation of fatty acids. Coenzyme Q (ubiquinone or Q) serves as a small lipophilic antioxidant as well as an electron shuttle in the respiratory chain of the mitochondrial inner membrane.
A plate dilution assay can be used to assess PUFA sensitivity. This assay can be performed by spotting serial five-fold dilutions of aliquots onto YPD plate media (FIG. 3). The sensitivity of the different strains can be observed by visual inspection of the density of cells in each spot.

[5] = test system: Q-less coq3 yeast strains; settings: 200 μM total ALA and D4-Lnn
Description: FIG. 10. […] Serial dilutions (1:5) starting at 0.2 OD/ml were spotted on YPD solid plate medium. Growth at 30° C.
Serial dilutions (1:5) starting at 0.2 OD/ml were spotted on YPD solid plate medium. Growth was at 30° C.

[6] = Study in patients suffering from Bipolar Disorder; settings: in vivo
Description: as §1
A similar study can be performed with patients suffering from Bipolar Disorder.

[7] = test system: Q-less coq3 yeast strains; experiment: Yeast incubation with different ratios of LA to D2-LA, plate dilution; type: cell-based
Description: FIG. 9. […] Wild-type, yeast Q-less coq3, or respiratory deficient cor1 null mutants were incubated in the presence of 200 μM of LA and D2-LA at different ratios of PUFAs. Serial dilutions (1:5) starting at 0.2 OD/ml were spotted on YPD solid plate medium. A zero-time untreated control is shown on the top left. Growth at 30° C.
Wild-type, yeast Q-less coq3, or respiratory deficient cor1 null mutants were incubated in the presence of 200 μM of LA and D2-LA at different ratios of PUFAs, as indicated in FIG. 9. Serial dilutions (1:5) starting at 0.2 OD/ml were spotted on YPD solid plate medium. […] Growth was at 30° C.

[8] = test system: wild-type (strain W303-1B) cells; settings: four hour treatment; cited from earlier work
[9] = test system: coq null mutants (Q-less yeast); settings: cited from earlier work
[10] = Kinetics of O2 consumption during AMVN-initiated oxidation (glass capillary microvolumeter); type: physicochemical; settings: for rate of oxidation, ROX: 0.71 M in chlorobenzene, 40 mM AMVN
Description: FIG. 7. Kinetics of O2 consumption accompanied the oxidation of 0.71 M LA (plots 1 and 2) and 0.71 M D2-LA (plot 3) in chlorobenzene initiated by 40 mM AMVN at 37° C. Plot 2-0.23 mM HPMC was added to 0.71 M LA.
The kinetics of oxygen consumption during the oxidation of LA and D2-LA was studied with a glass capillary microvolumeter (FIG. 7). The rate of oxidation, ROX, was measured as a slope of [O2] traces. The rate of initiation, RIN, was determined by the inhibitor method with HPMC (“6-hydroxy-2,2,5,7,8-pentamethylbenzochroman”) as a reference inhibitor. RIN was calculated from the induction period of inhibited oxidation, tIND: RIN=2·[HPMC]/tIND. […] See Carpenter, “Determination of Organic Reaction Mechanisms” (John Wiley & Sons, 1984), p. 89.

[11] = Kinetics of oxidation of mixtures of D2-LA and LA; type: physicochemical
Description: FIG. 8. Dependence of the rate of oxidation of the mixture of LA and D2-LA in chlorobenzene solution on mixture composition. Conditions: [LA]+[11,11-d2-LA]=0.775 M; [AMVN]=0.0217 M; 37° C. RIN=(1.10±0.08)×10^−7 M/sec.
To simulate the likely in vivo conditions, the kinetics of the oxidation of the mixtures of D2-LA and LA were studied (FIG. 8). In the experiments, the concentration of LA plus 11,11-d2-LA was 0.775 M; the concentration of AMVN was 0.0217 M; and the reactions were carried out at 37° C. The results afforded an RIN of 1.10±0.08×10^−7 M/sec.

Wild-type yeast cells = experiment: C11-Bodipy 581/591 lipid peroxidation in copper-stressed yeast; type: cell-based; settings: 200 μM fatty acid 2 hours, then 50 μM CuSO4 60 min
Description: Wild-type yeast cells were treated as described above except yeast were treated with 200 μM of the designated fatty acid for 2 hours, washed with sterile water, and were either not treated (triangles) or treated with 50 μM CuSO4 (squares) at room temperature. After 60 min of copper treatment cells were treated with 8 μM C11-Bodipy 581/591 for 30 min at room temperature. Four 100 μl aliquots were plated in a 96-well plate and the fluorescence was measured.

[12] = set-up: species or system WT mice; settings: both, mouse, in vivo, 90 days
Excerpt: WT mice were housed at 12 animals (males separate from females) per cage and fed for 90 days ad libitum (typically, 5-6 g/day) on the AIN 93 diet, as pellets, with 6% total fat. […] The animals were sacrificed, organs harvested and stored at low temperature prior to analysis without the use of preservation agents.

[13] = test system: m-Fibroblasts (Frda^L3/L-; h-I54F); experiment: Friedreich's ataxia model: viability of FAC/BSO-treated fibroblasts (Promega Cell-Glow); type: cell-based; settings: for cell survival on co-administration with idebenone: compared with individual administration of idebenone, D-LA, or D-ALA
Description: m-Fibroblasts (Frda^L3/L-; h-I54F) have both frataxin alleles deleted and over-express a mutated form of human frataxin (I154F) that is associated with the disease. […] Cells were plated in 48 well-plates and treated with FAC and BSO for 48 h and 24 h respectively. […] At the end of the experiment, cell viability was assessed by the Promega Cell-Glow kit and measured in Arbitrary Luminescence Units (ALU) also expressed as % survival (FIG. 22). In FIG. 22, NT stands for not treated; F stands for iron ammonium citrate; B stands for buthionine sulphoximine; CC stands for carrier control DMSO (dimethylsulfoxide) used to bring the final concentration in the assay to 0.5%; and IDB stands for idebenone.
Likewise, an investigation was undertaken to measure the effects of co-administering idebenone with D-PUFAs (FIG. 23).
Additional experiments were also performed to study the effects of co-administering different D-PUFAs (data not shown). I154F cells were treated with either 100% D-LA, 75% D-LA/25% D-ALA, 50% D-LA/50% D-ALA, and 100% D-ALA.

Compound: 11,11,14,14-Tetradeutero-cis,cis,cis-octadeca-8,12,15-trienoic acid [D4-ALA]
- presence in tissues and cells (deuterium content) [1]: expected to be found in the tissues and cells analyzed
- levels of biomarkers associated with oxidative stress [2]: reduce neuronal cell death and the levels of biomarkers associated with oxidative stress
- levels of biomarkers associated with oxidative stress [3]: reduce the levels of biomarkers associated with oxidative stress
- viability of cells by quantitative colony counting [4]: similar
- viability of coq mutants after fatty acid treatment ([4]; listed as D4-linolenic acid): resistant to PUFA-mediated cell killing; also recorded: not killed
- minimal amount sufficient to cancel the toxicity of ALA [5]: 15-20%
- levels of biomarkers associated with oxidative stress [6]: reduce the levels of biomarkers associated with oxidative stress

Compound: [2H]C(/C=C\CCCCC)/C=C\CCCCCCCC(=O)O (centres unmarked) [11,11-D,H-LA, [11-^2H]-linoleic acid]
- cell viability ([7]; after 3 hours of treatment, data not shown): no detectable loss in cell viability

Compound: [2H]C([2H])(/C=C\C/C=C\CC)C/C=C\CCCCCCC(=O)O [11, 11-D2-linolenic acid, 11,11-Dideutero-cis,cis,cis-octadeca-8,12,15-trienoic acid]
- viability of coq mutants after fatty acid treatment [4]: comparable protection

Compound: [2H]C([2H])(/C=C\CC)/C=C\CC/C=C\CCCCCCC(=O)O [14, 14-D2-linolenic acid, 14,14-Dideutero-cis,cis,cis-octadeca-8,12,15-trienoic acid]
- viability of coq mutants after fatty acid treatment [4]: comparable protection

Compound: CC/C=C\C/C=C\C/C=C\CCCCCCCC(=O)O [ALA, cis,cis,cis-9,12,15-Octadecatrienoic acid, reference compound]
- wild-type cells remaining viable [8]: 70%
- viable Q-less (coq2, coq3, and coq5) yeast mutants ([9]; four hour treatment): Less than 1%
- viability of coq mutants after fatty acid treatment [4]: dramatic loss of viability
- reduction of viability of the coq mutants ([4]; treatment for 4 h, colony counting): more than 100 fold

Compound: [2H]C([2H])(/C=C\CCCCC)/C=C\CCCCCCCC(=O)O [D2-LA, 11,11-Dideutero-cis,cis-octadeca-9,12-dienoic acid]
- effect of addition of HPMC on oxidation [10]: did not result in the decrease in ROX and the appearance of any detectable induction period
- length of the kinetic chain, ν=ROX/RIN [10]: ≈ 1.1
- rate of oxidation, ROX ([10]; 37° C.): 1.8e-07 M/s
- kinetic isotope effect (KIE) from ROX for LA and D2-LA ([10]; chlorobenzene, 37° C.): ≈ 35
- levels of biomarkers associated with oxidative stress [2]: reduce neuronal cell death and the levels of biomarkers associated with oxidative stress
- protection of non-deuterated LA against autoxidation ([11]; mixture with LA): ‘protects’ the non-deuterated LA against autoxidation
- protection against autoxidation ([11]; mixture with non-deuterated methyl linoleate, data not shown): qualititatively similar effect
- levels of lipid peroxidation (Wild-type yeast cells): lower levels of lipid peroxidation similar to yeast not treated with PUFA
- minimal amount sufficient to cancel the toxicity of LA ([7]; 200 μM total LA and D2-LA): 10-15%
- levels of biomarkers associated with oxidative stress [3]: reduce the levels of biomarkers associated with oxidative stress
- total fat being deuterated, liver [12]: about 32%
- levels of biomarkers associated with oxidative stress [6]: reduce the levels of biomarkers associated with oxidative stress

Compound: [2H]C([2H])(/C=C\CCCCC)/C=C\CCCCCCCC(=O)O [D-LA]
- cell viability (ALU, % survival) ([13]; FAC 48 h, BSO 24 h, PUFA added 2 hours after BSO): dose-dependent rescue of viability
- cell survival on co-administration with idebenone [13]: increased cell survival

Compound: CCCCC/C=C\C/C=C\CCCCCCCC(=O)O [LA, cis,cis-9,12-Octadecadienoic acid, reference compound]
- length of the kinetic chain, ν=ROX/RIN [10]: 38±3
- rate of oxidation, ROX ([10]; 37° C.): 6.1e-06 M/s
- oxidizability ([10]; n=5): 0.0215±0.008 M^−0.5s^−0.5

Compound: CCCCC/C=C\C/C=C\C/C=C\C/C=C\CCCC(=O)O [arachidonic acid]
- sensitivity of Q-less yeast to the fatty acid [9]: hypersensitive

Compound: CCCCCCCC/C=C\CCCCCCCC(=O)O [oleic acid, reference compound]
- sensitivity of Q-less yeast to the fatty acid [9]: behave the same as the wild-type parental strain
- viability of cells by quantitative colony counting [4]: similar

Compound: D-ALA
- cell survival on co-administration with idebenone [13]: increased cell survival
